Test system: SW620 cells (KRAS-G12V)
Assay: Cell proliferation / cytotoxicity assay (CellTiter-Glo 2.0)
Format: cell-based
Conditions: Homo sapiens, SW-620, 72 h, SW620 cell line (KRAS-G12V), 72 hours incubation, luminescence (CellTiter-Glo 2.0); read-out: 5W620 IC50
Description: Compounds are assayed for inhibition of cell proliferation and killing cancer cells. Cytotoxicity assays are conducted according to the following general procedure. SW620 cells (ATCC CCL-227) are maintained in DMEM Low Glucose (Corning 10-014-CV) media supplemented with 10% fetal bovine serum and 1% PenStrep and grown at 37° C. in 5% CO2. Cells are plated into 96 well flat bottom plates (2 million/plate, ˜20,000/well, 200 μL media/well). The cells are allowed to settle and adhere to the plate bottom overnight. Compounds are diluted in media from a 10 mM stock solution starting at 50 μM, using 2-fold dilutions, in a column in a 96-well plate. Media is removed from the plate containing cells and replaced with media containing diluted compounds. Plates are incubated 72 hours at 37° C. in 5% CO2. Plates were allowed to come to room temperature and 100 μL CellTiter-Glo 2.0 reagent (Promega, G924C) is added at room temperature. Plates are shaken for 2 minutes, then allowed to stand for 15 minutes. Luminescence is read with FLx800 (BioTek Instruments). Data is plotted with GraphPad Prizm 8.0.
Dose response curves for the cytotoxicity of exemplary compounds against SW620 (KRAS-G12V) and MIA PaCa-2 (KRAS-G12C) cell lines are shown in FIG. 1A-1J.

| SMILES | IC50 |
| --- | --- |
| Cc1nc(N[C@H]2CC[C@@H](NC3Cc4cccc(Cl)c4C3)CC2)nc2ccc(-c3cccc4c3OCCO4)cc12 (stereo partly shown) [Compound 68] | < 5 µM |
| Cc1ncccc1-c1ccc2nc(N[C@H]3CC[C@@H](NC4Cc5cccc(Cl)c5C4)CC3)nc(C)c2c1 (stereo partly shown) [Compound 69] | 5 to 10 µM |
| Cc1nc(NC2CCN(Cc3ccc(Cl)cc3)CC2)nc2ccc(-c3cccc4c3OCC(=O)N4)cc12 [Compound 70] | 5 to 10 µM |
| Cc1nc(N[C@H]2CC[C@@H](N)CC2)nc2ccc(-c3cccc4c3OCC(=O)N4)cc12 [Compound 71] | 5 to 10 µM |
| Cc1nc(N[C@@H]2CC[C@H]3CC[C@@H](C2)N3C(=O)c2ccccc2Cl)nc2ccc(-c3cccc4c3CCCC4)cc12 [Compound 72] | 5 to 10 µM |
| Cc1nc(N[C@@H]2CC[C@H]3CC[C@@H](C2)N3C(=O)c2ccc(Cl)cc2Cl)nc2ccc(-c3cccc4c3CCCC4)cc12 [Compound 73] | 5 to 10 µM |
| Cc1nccc(-c2ccc3nc(N[C@@H]4CC[C@H]5CC[C@@H](C4)N5Cc4ccc(Cl)cc4)nc(C)c3c2)c1Cl [Compound 74] | < 5 µM |

Source: patent publication US12528796B2, “Modulators of RAS GTPase” (Tosk, Inc., priority 2019, dated 2026)
